From patent US11008346B2, “Beta-lactamase inhibitors” (priority 2014, dated 2021)

Key:
SHV-5 β-lactamase = biological target: T1, SHV-5 β-lactamase (Klebsiella pneumoniae, UniProt P0A3M1); experiment: β-lactamase enzyme inhibition, SHV-5; type: biochemical
T1 construct: made in house; host or cells: E. coli BL21(DE3)
Method in brief: (§1)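 IC50 was the inhibitor concentration halving the initial hydrolysis rate versus no-inhibitor wells, following a 15 min 37° C. enzyme–inhibitor preincubation. Substrates: imipenem read at 300 nm for KPC-2, cefotaxime at 260 nm for SHV-5, and nitrocefin (100 μM final) at 486 nm for OXA-1 and p99 AmpC. Enzymes were recombinant untagged proteins from E. coli BL21(DE3).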

KPC-2 β-lactamase = biological target: T2, KPC-2 β-lactamase (Klebsiella pneumoniae, UniProt Q9F663); experiment: β-lactamase enzyme inhibition, KPC-2; type: biochemical; details: imipenem substrate, 300 nm; 15 min at 37° C. preincubation; read-out: IC50 KPC-2 (Class A)
T2 construct: made in house; host or cells: E. coli BL21(DE3)
T2 sequence (Q9F663 25-293, looked up): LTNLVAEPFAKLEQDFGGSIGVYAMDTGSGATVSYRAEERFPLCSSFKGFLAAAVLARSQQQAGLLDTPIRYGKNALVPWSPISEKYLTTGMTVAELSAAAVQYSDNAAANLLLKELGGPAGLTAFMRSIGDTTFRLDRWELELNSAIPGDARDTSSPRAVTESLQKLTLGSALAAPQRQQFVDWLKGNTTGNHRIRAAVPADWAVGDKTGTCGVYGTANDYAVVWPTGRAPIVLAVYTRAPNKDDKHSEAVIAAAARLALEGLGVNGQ
Method in brief: as §1

[1] = biological target: T3, VIM-2 metallo β-lactamase (Pseudomonas aeruginosa, UniProt Q9K2N0); experiment: β-lactamase enzyme inhibition, VIM-2; type: biochemical; details: Nitrocefin 100 μM, 486 nm; 15 min at 37° C. preincubation; read-out: IC50 VIM-2 (Class B)
T3 construct: made in house; host or cells: E. coli BL21(DE3)
Method in brief: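 Inhibitor and enzyme sat together 15 min at 37° C before 100 μM nitrocefin (final) was added and 486 nm absorbance read for 10 min. IC50 is the concentration halving initial hydrolysis rate relative to uninhibited wells. Protein came from Q sepharose anion exchange at pH 7.5, repeated to >90% purity.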

p99 AmpC β-lactamase = biological target: T4, p99 AmpC β-lactamase (Enterobacter cloacae, UniProt P05364); experiment: β-lactamase enzyme inhibition, p99 AmpC; type: biochemical
T4 construct: made in house; host or cells: E. coli BL21(DE3)
T4 sequence (P05364 21-381): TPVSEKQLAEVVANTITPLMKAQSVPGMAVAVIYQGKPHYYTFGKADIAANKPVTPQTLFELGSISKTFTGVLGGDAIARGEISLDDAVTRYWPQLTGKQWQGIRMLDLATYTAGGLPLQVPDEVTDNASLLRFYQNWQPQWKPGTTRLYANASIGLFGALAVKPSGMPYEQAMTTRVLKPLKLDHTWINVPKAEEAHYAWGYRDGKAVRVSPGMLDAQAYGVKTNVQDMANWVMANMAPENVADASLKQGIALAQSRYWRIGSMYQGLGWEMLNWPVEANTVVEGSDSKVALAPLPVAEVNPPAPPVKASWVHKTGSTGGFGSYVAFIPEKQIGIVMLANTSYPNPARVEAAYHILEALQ
Method in brief: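 Inhibitor and enzyme were incubated 15 min at 37°C first. The enzyme was recombinant p99 AmpC, untagged, from E. coli BL21(DE3), purified by ion-exchange and size-exclusion chromatography.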

OXA-1 β-lactamase = biological target: T5, OXA-1 β-lactamase (Escherichia coli, UniProt P13661); experiment: β-lactamase enzyme inhibition, OXA-1; type: biochemical; details: Nitrocefin 100 μM, 486 nm; 15 min at 37° C. preincubation; read-out: IC50 OXA-1 (Class D)
T5 construct: made in house; host or cells: E. coli BL21(DE3)
T5 sequence (P13661 26-276): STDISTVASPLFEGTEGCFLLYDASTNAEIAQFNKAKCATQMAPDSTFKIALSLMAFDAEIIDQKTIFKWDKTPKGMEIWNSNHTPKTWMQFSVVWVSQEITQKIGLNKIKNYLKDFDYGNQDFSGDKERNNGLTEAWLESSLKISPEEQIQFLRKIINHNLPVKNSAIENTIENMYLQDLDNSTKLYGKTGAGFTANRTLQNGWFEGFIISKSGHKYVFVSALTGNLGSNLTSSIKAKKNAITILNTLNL
Method: For SHV-5, Kpc-2, p99AmpC and OXA-1 β-lactamases, E. coli BL21(DE3) bacterial cells carrying expression plasmids (expressed as native untagged proteins) for the individual β-lactamases were grown in 1 L of Superbroth (Teknova Inc. Hollister, Calif.) supplemented with 100 μg/ml kanamycin selection and 1×5052 (0.5% glycerol, 0.05% glucose and 0.2% α-lactose) at 35° C. for 18-20 hours. Cells were harvested by centrifugation (4,000×g, 4° C., 20 min), resuspended in 50 ml of 10 mM HEPES pH 7.5 ( 1/20 of the initial volume). The cells were lysed by sonication (5 pulses of 45 seconds) at 45 W on ice. The lysates were clarified by centrifugation at 10,000×g for 40 minutes at 4° C. Samples were diluted 5-fold in 50 mM sodium acetate pH 5.0, stored overnight at 4° C., after which they were centrifuged at 10,000×g for 30 minutes to clarify, and filtered through 0.45 μm filters. The samples were loaded onto a 5 ml Capto S sepharose cation exchange column (GE Healthcare) pre-equilibrated with 50 mM sodium acetate pH 5.0. The column was washed with 5 column volumes of 50 mM sodium acetate pH 5.0 to wash out unbound protein and a linear gradient of NaCl (0 to 500 mM) was used to elute the protein (over 16 CV) from the column. Fractions were assayed for […] activity using Centa (Calbiochem, Gibbstown, N.J.) or Nitrocefin (EMD Millipore chemicals, Darmstadt, Germany) as a reporter β-lactamase substrate for activity in the isolated fractions. Active fractions were pooled, concentrated and further purified by gel filtration chromatography on a Superdex 75 prep grade gel filtration column (GE Healthcare, Piscataway, N.J.) pre-equilibrated in 50 mM Hepes pH 7.5, 150 mM NaCl. Active fractions were pooled, concentrated, and quantitated by BCA protein determination (Thermo Scientific, Rockford, Ill.), dialyzed into PBS and frozen at −80° C. in 20% glycerol until use.
An equal volume of diluted enzyme stock was added, and the plates were incubated at 37° C. for 15 min. Nitrocefin was used as substrate for p99 AmpC, VIM-2 and OXA-1 and dispensed into each well at a final concentration of 100 μM. Absorbance at 486 nm was immediately monitored for 10 min using a Biotek Powerwave XS2 microplate spectrophotometer using the GEN5 software package (Biotek Instruments, Winooski Vt.). In an analogous fashion, imipenem was used as substrate for KPC-2 and Cefotaxime was used for SHV-5, while changes in absorbance upon hydrolysis of the β-lactam ring were monitored at 300 nm and 260 nm respectively in UV-transparent 96-well microtiter assay plates. Maximum rates of hydrolysis were compared to those in control wells (without inhibitors), and percentages of enzyme inhibition were calculated for each concentration of inhibitor. The concentration of inhibitor needed to reduce the initial rate of hydrolysis of substrate by 50% (IC50) was calculated as the residual activity of β-lactamase at 486 nm using GraFit version 7 kinetics software package (Erithacus Software, Surrey, UK).
Using the methodology described above, examples of the current invention were evaluated for their ability to inhibit β-lactamase enzymes from all four Ambler classifications (A through D). […] NT=Not tested.

[2] = tested on: E. coli ESBL4 expressing CTX-M-15; experiment: broth microdilution MIC, E. coli CTX-M-15; type: cell-based; details: Fixed CAZ (ceftazidime) 4 μg/mL
Method in brief: (§2)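 Following CLSI broth microdilution, plates were read by eye for MIC after 16–20 h incubation at 37 °C. Each well held a fixed 4 μg/mL β-lactam overlay plus test compound serially halved from 32 to 0.25 μg/mL in CAMHB. Inocula came from 3–5 h broth cultures.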

[3] = tested on: E. cloacae 144200 expressing Class C P99 AmpC; experiment: broth microdilution MIC, E. cloacae P99; type: cell-based; details: Fixed CAZ (ceftazidime) 4 μg/mL
Method in brief: as §2

[4] = tested on: K. pneumoniae 156319 expressing KPC-3; experiment: broth microdilution MIC, K. pneumoniae KPC-3; type: cell-based; details: Fixed Mero (meropenem) 4 μg/mL
Method in brief: as §2

[5] = tested on: K. pneumoniae A-1797 expressing KPC-2 and VIM-4; experiment: broth microdilution MIC, K. pneumoniae KPC-2 and VIM-4; type: cell-based; details: Fixed Mero (meropenem) 4 μg/mL
Method in brief: as §2

T1 sequence (P0A3M1 22-286): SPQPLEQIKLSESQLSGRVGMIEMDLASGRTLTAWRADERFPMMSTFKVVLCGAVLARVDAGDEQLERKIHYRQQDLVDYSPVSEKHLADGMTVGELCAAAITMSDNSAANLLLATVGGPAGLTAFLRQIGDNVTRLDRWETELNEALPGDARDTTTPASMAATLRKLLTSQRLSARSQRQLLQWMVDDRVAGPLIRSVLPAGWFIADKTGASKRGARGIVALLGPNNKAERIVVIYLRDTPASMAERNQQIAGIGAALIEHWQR

| SMILES | IC50 (SHV-5 β-lactamase) | IC50 (KPC-2 β-lactamase) | IC50 [1] | IC50 (p99 AmpC β-lactamase) | IC50 (OXA-1 β-lactamase) | MIC of exemplary compounds in presence of fixed β-lactams, E. coli ESBL4 CTX-M-15 [2] | MIC of exemplary compounds in presence of fixed β-lactams, E. cl. 144200 p99 AmpC [3] | MIC of exemplary compounds in presence of fixed β-lactams, K.P. 156319 KPC-3 [4] | MIC of exemplary compounds in presence of fixed β-lactams, K.P. A-1797 KPC-2 VIM-4 [5] |
| --- | --- | --- | --- | --- | --- | --- | --- | --- | --- |
| CC(C)(C#N)CC(=O)N[C@H]1Cc2cccc(C(=O)O)c2OB1O [Example 43, (R)-3-(3-Cyano-3,3-dimethyl-propionylamino)-2-hydroxy-3,4-dihydro-2H-benzo[e][1,2]oxaborinine-8-carboxylic acid] | 100 to 1000 nM | < 100 nM | 100 to 1000 nM | 100 to 1000 nM | < 100 nM | C (C represents the MIC in the presence of ≤4 g/mL of a β-lactamase inhibitor) | C (C represents the MIC in the presence of ≤4 g/mL of a β-lactamase inhibitor) | C (C represents the MIC in the presence of ≤4 g/mL of a β-lactamase inhibitor) | B (B represents the MIC in the presence of between 8 and 32 g/mL of a β-lactamase inhibitor) |
| N#CCCC(=O)N[C@H]1Cc2ccc(F)c(C(=O)O)c2OB1O [Example 46, (R)-3-(3-Cyano-propionylamino)-7-fluoro-2-hydroxy-3,4-dihydro-2H-benzo[e][1,2]oxaborinine-8-carboxylicacid] | < 100 nM | < 100 nM | 100 to 1000 nM | < 100 nM | < 100 nM | C (C represents the MIC in the presence of ≤4 g/mL of a β-lactamase inhibitor) | C (C represents the MIC in the presence of ≤4 g/mL of a β-lactamase inhibitor) | C (C represents the MIC in the presence of ≤4 g/mL of a β-lactamase inhibitor) | B (B represents the MIC in the presence of between 8 and 32 g/mL of a β-lactamase inhibitor) |
| CC(=O)CCC(=O)N[C@H]1Cc2ccc(F)c(C(=O)O)c2OB1O [Example 47, (R)-7-Fluoro-2-hydroxy-3-(4-oxo-pentanoylamino)-3,4-dihydro-2H-benzo[e][1,2]oxaborinine-8-carboxylic acid] | < 100 nM | < 100 nM | < 100 nM | < 100 nM | < 100 nM | C (C represents the MIC in the presence of ≤4 g/mL of a β-lactamase inhibitor) | C (C represents the MIC in the presence of ≤4 g/mL of a β-lactamase inhibitor) | C (C represents the MIC in the presence of ≤4 g/mL of a β-lactamase inhibitor) | C (C represents the MIC in the presence of ≤4 g/mL of a β-lactamase inhibitor) |
| CS(=O)(=O)NCCC(=O)N[C@H]1Cc2ccc(F)c(C(=O)O)c2OB1O [Example 48, (R)-7-Fluoro-2-hydroxy-3-(3-methanesulfonylamino-propionylamino)-3,4-dihydro-2H-benzo[e][1,2]oxaborinine-8-carboxylic acid] | < 100 nM | < 100 nM | 100 to 1000 nM | < 100 nM | < 100 nM | C (C represents the MIC in the presence of ≤4 g/mL of a β-lactamase inhibitor) | C (C represents the MIC in the presence of ≤4 g/mL of a β-lactamase inhibitor) | C (C represents the MIC in the presence of ≤4 g/mL of a β-lactamase inhibitor) | B (B represents the MIC in the presence of between 8 and 32 g/mL of a β-lactamase inhibitor) |
| N#CCCC(=O)N[C@H]1Cc2cc(F)c(F)c(C(=O)O)c2OB1O [Example 49, (R)-3-(3-Cyano-propionylamino)-6,7-difluoro-2-hydroxy-3,4-dihydro-2H-benzo[e][1,2]oxaborinine-8-carboxylic acid] | < 100 nM | < 100 nM | 1000 to 10000 nM | 100 to 1000 nM | < 100 nM | C (C represents the MIC in the presence of ≤4 g/mL of a β-lactamase inhibitor) | C (C represents the MIC in the presence of ≤4 g/mL of a β-lactamase inhibitor) | C (C represents the MIC in the presence of ≤4 g/mL of a β-lactamase inhibitor) | B (B represents the MIC in the presence of between 8 and 32 g/mL of a β-lactamase inhibitor) |
| CC(=O)CCC(=O)N[C@H]1Cc2cc(F)c(F)c(C(=O)O)c2OB1O [Example 50, (R)-6,7-Difluoro-2-hydroxy-3-(4-oxo-pentanoylamino)-3,4-dihydro-2H-benzo[e][1,2]oxaborinine-8-carboxylic acid] | < 100 nM | < 100 nM | 100 to 1000 nM | 100 to 1000 nM | < 100 nM | C (C represents the MIC in the presence of ≤4 g/mL of a β-lactamase inhibitor) | C (C represents the MIC in the presence of ≤4 g/mL of a β-lactamase inhibitor) | B (B represents the MIC in the presence of between 8 and 32 g/mL of a β-lactamase inhibitor) | B (B represents the MIC in the presence of between 8 and 32 g/mL of a β-lactamase inhibitor) |
| CS(=O)(=O)NCCC(=O)N[C@H]1Cc2cc(F)c(F)c(C(=O)O)c2OB1O [Example 51, (R)-6,7-Difluoro-2-hydroxy-3-(3-methanesulfonylamino-propionylamino)-3,4-dihydro-2H-benzo[e][1,2]oxaborinine-8-carboxylic acid] | < 100 nM | < 100 nM | 1000 to 10000 nM | < 100 nM | < 100 nM | C (C represents the MIC in the presence of ≤4 g/mL of a β-lactamase inhibitor) | C (C represents the MIC in the presence of ≤4 g/mL of a β-lactamase inhibitor) | C (C represents the MIC in the presence of ≤4 g/mL of a β-lactamase inhibitor) | B (B represents the MIC in the presence of between 8 and 32 g/mL of a β-lactamase inhibitor) |
